Reference: patent US12234499B2, “Compositions, methods, systems and/or kits for detecting antimicrobial resistance in bacteria” (priority 2016, dated 2025)

How the values were obtained:
Type in all cases: cell-based
[1] = test system: enteric bacteria expressing Class D carbapenemase; assay: Growth of enteric bacteria in the presence of TEM (FIG. 1)
Protocol: (§1) Non-limiting embodiments of detection tests for enteric and non-fermenting bacteria, with various concentration ranges of one or more antibiotics, and various concentration ranges for one or more inhibitors are shown in FIG. 1-FIG. 24 and FIG. 31. These figures illustrate the concentration of the antibiotic being tested (in μg/ml) along the x-axis (not every concentration is tested in every figure), and the amount of growth of bacteria in the sample in the y-axis. The boxes illustrate the median, interquartile range, non-outlier minimum and maximum; with asterisks representing single outliers. Each figure has a panel for Class A, Class B, and Class D producing bacteria, as well as a panel for non-carbapenemase producing bacteria (NEG). In some embodiments, the detection tests described herein are not performed by imaging a change in cell morphology.
(§2) By way of example, FIG. 1 illustrates a test of various enteric bacteria grown in the presence of several concentrations of TEM.
(§3) In some embodiments, the detection tests can comprise a plurality of wells comprising enteric bacteria and TEM over a range of concentrations of about 12 μg/ml to about 512 μg/ml (FIG. 1).

[2] = test system: non-carbapenemase producing (NEG) enteric bacteria; assay: as above; conditions: nearly all NEG enteric bacteria
Protocol: as §1, §2, §3

[3] = test system: enteric bacteria expressing Class B carbapenemase; assay: as above
Protocol: as §1, §2, §3

[4] = test system: enteric bacteria expressing Class A carbapenemase; assay: as above; conditions: Class A enteric bacterial strains
Protocol: as §1, §2, §3

[5] = test system: bacteria expressing Classes A, B or D; assay: Growth test with CLOX (FIG. 31); conditions: CLOX at a concentration of about 100 μg/ml
Protocol: as §1
(§4) In some embodiments, the detection tests can comprise a plurality of wells comprising enteric bacteria, CLOX at 0.1 mg/ml, and MEM over a range of concentrations of about 0.0156 μg/ml to about 64 μg/ml (FIG. 31).

[6] = test system: Bacteria expressing Class C β-lactamases; assay: Growth test with CLOX (FIG. 31)
Protocol: as §1, §4

SMILES | concentration reached before growth is affected ([1]; Class D enteric bacteria unaffected until this concentration) | MIC ([1]; bacteria expressing Class D, read-out: TEM concentration at which bacteria are sensitive (elevated MIC)) | sensitivity to TEM [2] | concentration at which bacteria begin to show sensitivity ([3]; Class B enteric bacteria, decrease in the average growth line) | concentration at which growth of most strains is inhibited ([3]; Class B enterics) | concentration at which nearly all strains tested are inhibited [4] | sensitivity to CLOX [5] | concentration at which bacteria are sensitive [6]
CO[C@@]1(NC(=O)C(C(=O)O)c2ccsc2)C(=O)N2[C@@H](C(=O)O)C(C)(C)S[C@@H]21 (stereo partly drawn) [TEM, disodium 6beta-(2-carboxy-2-thien-3-ylacetamido)-6alpha-methoxypenicillanate] | 192 µg/mL | ≥ 128 µg/mL | sensitive to lowest concentration | 48 µg/mL | 384 µg/mL | 24 µg/mL |  | 
Cc1onc(-c2ccccc2Cl)c1C(=O)N[C@@H]1C(=O)N2[C@@H]1SC(C)(C)[C@@H]2C(=O)O [CLOX, cloxacillin] |  |  |  |  |  |  | typically not | about 100 μg/ml
